Results published in patent publication US7138361B2, “Herbicidal heterocycles” (E. I. du Pont de Nemours and Company, priority 2000, dated 2006).

Assays:
Format in all cases: in vivo
Sunflower = test: Test C preemergence; conditions: Rate 500 g/ha, visual evaluation after 12 to 14 days
[1] = tested on: barnyardgrass (Echinochloa crus-galli); test: Test C flooded paddy test; conditions: for Barnyardgrass plant response rating: Flooded Paddy, scale 0 to 100, 0 no effect, 100 complete control
How it was run: (§1)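 Visually assessed vs untreated controls 12–14 d post-treatment (greenhouse). Flooded paddy plants were at the 2-leaf stage; scale 0 = no effect, 100 = complete control.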

rice (Oryza saliva) = test: Test C flooded paddy test; conditions: for Rice plant response rating: Flooded Paddy, scale 0 to 100, 0 no effect, 100 complete control
How it was run: as §1

kochia (Kochia scoparia) = test: Test C preemergence; conditions: for Plant response rating (0 to 100), Kochia: visual evaluation after 12 to 14 days
Description: (§2) Seeds of plant species selected from bermudagrass (Cynodon dactylon), Surinam grass (Brachiaria decumbens), cocklebur (Xanthium strumarium), corn (Zea mays), crabgrass (Digitaria sanguinalis), woolly cupgrass (Eriochloa villosa), giant foxtail (Setaria faberii), goosegrass (Eleusine indica), johnsongrass (Sorghum halepense), kochia (Kochia scoparia), lambsquarters (Chenopodium album), morningglory (Ipomoea hederacea), yellow nutsedge (Cyperus esculentus), pigweed (Amaranthus retroflexus), common ragweed (Ambrosia elatior), soybean (Glycine max) and velvetleaf (Abutilon theophrasti) were planted and treated preemergence with test chemicals formulated in a non-phytotoxic solvent mixture which included a surfactant.
(§3) At the same time, plants selected from these crop and weed species and also winter barley (Hordeum vulgare), blackgrass (Alopecurus myosuroides), canary grass (Phalaris minor), chickweed (Stellaria media), downy brome (Bromus tectorum), green foxtail (Setaria viridis), Italian ryegrass (Lolium multiflorum), wheat (Triticum aestivum), wild oat (Avena fatua) and windgrass (Apera spica-venti) were treated with postemergence applications of some of the test chemicals formulated in the same manner. Plants ranged in height from 2 to 18 cm (1- to 4-leaf stage) for postemergence treatments. Plant species in the flooded paddy test consisted of rice (Oryza saliva), smallflower flatsedge (Cyperus difformis), duck salad (Heteranthera limosa) and barnyardgrass (Echinochloa crus-galli) grown to the 2-leaf stage for testing. Treated plants and controls were maintained in a greenhouse for 12 to 14 days, after which time all species were compared to controls and visually evaluated. Plant response ratings, summarized in Table C, are based on a scale of 0 to 100 where 0 is no effect and 100 is complete control. A dash (-) response means no test result.

corn (Zea mays) = test: Test C preemergence; conditions: for Plant response rating (0 to 100), Corn: visual evaluation after 12 to 14 days
Description: as §2, §3

[2] = tested on: cocklebur (Xanthium strumarium); test: Test C preemergence; conditions: for Plant response rating (0 to 100), Cocklebur: visual evaluation after 12 to 14 days
Description: as §2, §3

soybean (Glycine max) = test: Test C preemergence; conditions: preemergence
Description: as §2, §3

[3] = tested on: velvetleaf (Abutilon theophrasti); test: Test C preemergence; conditions: preemergence
Description: as §2, §3

[4] = tested on: johnsongrass (Sorghum halepense); test: Test C preemergence; conditions: for Plant response rating (0 to 100), Johnsongrass: visual evaluation after 12 to 14 days
Description: as §2, §3

[5] = tested on: lambsquarters (Chenopodium album); test: Test C preemergence; conditions: for Plant response rating, Lambsquarters: scale 0 to 100, 0 no effect, 100 complete control
Description: as §2, §3

[6] = tested on: goosegrass (Eleusine indica); test: Test C preemergence; conditions: for Plant response rating (0 to 100), Goosegrass: visual evaluation after 12 to 14 days
Description: as §2, §3

[7] = tested on: bermudagrass (Cynodon dactylon); test: Test C preemergence; conditions: for Plant response rating (0 to 100 where 0 is no effect and 100 is complete control), Bermudagrass: visual evaluation after 12 to 14 days
Description: as §2, §3

[8] = tested on: giant foxtail (Setaria faberii); test: Test C preemergence; conditions: for Plant response rating (0 to 100), Foxtail, Giant: visual evaluation after 12 to 14 days
Description: as §2, §3

[9] = tested on: yellow nutsedge (Cyperus esculentus); test: Test C preemergence
Description: as §2, §3

[10] = tested on: crabgrass (Digitaria sanguinalis); test: Test C preemergence; conditions: for Plant response rating (0 to 100), Crabgrass: visual evaluation after 12 to 14 days
Description: as §2, §3

[11] = tested on: woolly cupgrass (Eriochloa villosa); test: Test C preemergence; conditions: for Plant response rating (0 to 100), Cupgrass, Woolly: visual evaluation after 12 to 14 days
Description: as §2, §3

[12] = tested on: common ragweed (Ambrosia elatior); test: Test C preemergence; conditions: preemergence
Description: as §2, §3

[13] = tested on: morningglory (Ipomoea hederacea); test: Test C preemergence
Description: as §2, §3

[14] = tested on: pigweed (Amaranthus retroflexus); test: Test C preemergence; conditions: preemergence
Description: as §2, §3

Nightshade = test: Test C preemergence
Description: as §2, §3

[15] = tested on: Surinam grass (Brachiaria decumbens); test: Test C preemergence; conditions: for Plant response rating (0 to 100), Surinam grass: visual evaluation after 12 to 14 days
Description: as §2, §3

[16] = flooded paddy test, Rate 62 g/ha, scale 0 to 100 (0 no effect, 100 complete control)
[17] = Rate 62 g/ha, scale 0 to 100, 0 no effect, 100 complete control
[18] = preemergence, Rate 31 g/ha, scale 0 to 100
[19] = preemergence, Rate 125 g/ha, scale 0 to 100, 0 no effect, 100 complete control
[20] = Rate 500 g/ha, visual evaluation after 12 to 14 days
[21] = Rate 125 g/ha, scale 0 to 100, 0 no effect, 100 complete control
[22] = Rate 250 g/ha, scale 0 to 100, 0 no effect, 100 complete control
[23] = preemergence, Rate 500 g/ha, visual evaluation after 12 to 14 days
[24] = preemergence, Rate 250 g/ha, scale 0 to 100, 0 no effect, 100 complete control

CC(C)Oc1cccc(N2CCC(n3ccc(C(C)(C)C)n3)C2=O)c1 (stereo not shown) [Compound 70]
Plant response rating (0 to 100), Sunflower (Sunflower): 60
Barnyardgrass plant response rating ([1]; Rate 250 g/ha): 100
Barnyardgrass plant response rating ([1]; Rate 500 g/ha): 100
Plant response rating, Barnyardgrass [1, 16]: 60
Rice plant response rating (rice (Oryza saliva); Rate 250 g/ha): 60
Rice plant response rating (rice (Oryza saliva); Rate 500 g/ha): 90
Plant response rating, Rice (rice (Oryza saliva); [16]): 20
Plant response rating, Kochia (kochia (Kochia scoparia); [17]): 80
Plant response rating, Kochia (kochia (Kochia scoparia); [18]): 0
Plant response rating (0 to 100), Kochia (kochia (Kochia scoparia); preemergence, Rate 250 g/ha): 100
Plant response rating (0 to 100), Kochia (kochia (Kochia scoparia); preemergence, Rate 500 g/ha): 100
Plant response rating, Kochia (kochia (Kochia scoparia); [19]): 90
Plant response rating, Corn (corn (Zea mays); [17]): 0
Plant response rating, Corn (corn (Zea mays); [18]): 0
Plant response rating (0 to 100), Corn (corn (Zea mays); preemergence, Rate 250 g/ha): 0
Plant response rating (0 to 100), Corn (corn (Zea mays); preemergence, Rate 500 g/ha): 20
Plant response rating, Corn (corn (Zea mays); [19]): 0
Plant response rating, Cocklebur [2, 17]: 0
Plant response rating, Cocklebur [2, 18]: 0
Plant response rating (0 to 100), Cocklebur ([2]; preemergence, Rate 250 g/ha): 0
Plant response rating (0 to 100), Cocklebur ([2]; preemergence, Rate 500 g/ha): 20
Plant response rating, Cocklebur [2, 19]: 0
Plant response rating, Soybean (soybean (Glycine max); Rate 31 g/ha, scale 0 to 100): 0
Plant response rating (0 to 100), Soybean (soybean (Glycine max); [20]): 20
Plant response rating, Soybean (soybean (Glycine max); [21]): 10
Plant response rating, Soybean (soybean (Glycine max); [22]): 20
Plant response rating, Velvetleaf ([3]; Rate 31 g/ha, scale 0 to 100): 0
Plant response rating (0 to 100), Velvetleaf [3, 20]: 10
Plant response rating, Velvetleaf [3, 21]: 0
Plant response rating, Velvetleaf [3, 22]: 0
Plant response rating, Johnsongrass [4, 17]: 0
Plant response rating, Johnsongrass [4, 18]: 0
Plant response rating (0 to 100), Johnsongrass ([4]; preemergence, Rate 250 g/ha): 50
Plant response rating (0 to 100), Johnsongrass ([4]; preemergence, Rate 500 g/ha): 70
Plant response rating, Johnsongrass [4, 19]: 10
Plant response rating, Lambsquarters ([5]; Rate 62 g/ha): 100
Plant response rating (0 to 100), Lambsquarters [5, 23]: 100
Plant response rating, Lambsquarters ([5]; preemergence, Rate 125 g/ha): 100
Plant response rating, Lambsquarters ([5]; preemergence, Rate 250 g/ha): 100
Plant response rating, Goosegrass [6, 17]: 90
Plant response rating, Goosegrass [6, 18]: 30
Plant response rating (0 to 100), Goosegrass ([6]; preemergence, Rate 250 g/ha): 100
Plant response rating (0 to 100), Goosegrass ([6]; preemergence, Rate 500 g/ha): 100
Plant response rating, Goosegrass [6, 19]: 100
Plant response rating, Bermudagrass [7, 17]: 100
Plant response rating, Bermudagrass [7, 18]: 80
Plant response rating (0 to 100 where 0 is no effect and 100 is complete control), Bermudagrass ([7]; preemergence, Rate 250 g/ha): 100
Plant response rating (0 to 100 where 0 is no effect and 100 is complete control), Bermudagrass ([7]; preemergence, Rate 500 g/ha): 100
Plant response rating, Bermudagrass [7, 19]: 100
Plant response rating, Foxtail, Giant [8, 17]: 100
Plant response rating, Foxtail, Giant [8, 18]: 0
Plant response rating (0 to 100), Foxtail, Giant ([8]; preemergence, Rate 250 g/ha): 100
Plant response rating (0 to 100), Foxtail, Giant ([8]; preemergence, Rate 500 g/ha): 100
Plant response rating, Foxtail, Giant [8, 19]: 100
Plant response rating, Nutsedge [9, 17]: 0
Plant response rating, Nutsedge [9, 18]: 0
Plant response rating (0 to 100), Nutsedge [9, 23]: 0
Plant response rating, Nutsedge [9, 19]: 0
Plant response rating, Nutsedge [9, 24]: 0
Plant response rating, Crabgrass [10, 17]: 100
Plant response rating, Crabgrass [10, 18]: 30
Plant response rating (0 to 100), Crabgrass ([10]; preemergence, Rate 250 g/ha): 100
Plant response rating (0 to 100), Crabgrass ([10]; preemergence, Rate 500 g/ha): 100
Plant response rating, Crabgrass [10, 19]: 100
Plant response rating, Cupgrass, Woolly [11, 17]: 70
Plant response rating, Cupgrass, Woolly [11, 18]: 0
Plant response rating (0 to 100), Cupgrass, Woolly ([11]; preemergence, Rate 250 g/ha): 100
Plant response rating (0 to 100), Cupgrass, Woolly ([11]; preemergence, Rate 500 g/ha): 100
Plant response rating, Cupgrass, Woolly [11, 19]: 100
Plant response rating, Ragweed, Common ([12]; Rate 31 g/ha, scale 0 to 100): 0
Plant response rating (0 to 100), Ragweed, Common [12, 20]: 100
Plant response rating, Ragweed, Common [12, 21]: 60
Plant response rating, Ragweed, Common [12, 22]: 80
Plant response rating, Morningglory [13, 17]: 20
Plant response rating, Morningglory [13, 18]: 0
Plant response rating (0 to 100), Morningglory [13, 23]: 40
Plant response rating, Morningglory [13, 19]: 0
Plant response rating, Morningglory [13, 24]: 0
Plant response rating, Pigweed ([14]; Rate 31 g/ha, scale 0 to 100): 0
Plant response rating (0 to 100), Pigweed [14, 20]: 100
Plant response rating, Pigweed [14, 21]: 20
Plant response rating, Pigweed [14, 22]: 0
Plant response rating, Nightshade (Nightshade; Rate 31 g/ha, scale 0 to 100): 20
Plant response rating, Nightshade (Nightshade; [17]): 30
Plant response rating, Nightshade (Nightshade; [21]): 50
Plant response rating, Nightshade (Nightshade; [22]): 70
Plant response rating, Surinam grass [15, 17]: 60
Plant response rating, Surinam grass [15, 18]: 20
Plant response rating (0 to 100), Surinam grass ([15]; preemergence, Rate 250 g/ha): 70
Plant response rating (0 to 100), Surinam grass ([15]; preemergence, Rate 500 g/ha): 80
Plant response rating, Surinam grass [15, 19]: 70
